Experimental data reported in ChEMBL document CHEMBL1201862, “PubChem BioAssay data set” (2004).
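Following 48 hours of exposure in 96-well plates, responses at five concentrations were used to interpolate endpoints linearly. GI50 is the concentration that inhibits growth by half.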 Calls of active or inactive are those of the source. Rule as the data show it: active = GI50 up to about 1.1 µM and inactive = higher.

Tests used:
Test in all cases: growth of human tumour cells (NCI), 48 h
[1] = system: NCI-H226
[2] = system: HT-29
[3] = system: HL-60
[4] = system: SK-OV-3
[5] = system: EKVX
[6] = system: SK-MEL-5
[7] = system: TK-10
[8] = system: A549
[9] = system: 786-0
[10] = system: OVCAR-8
[11] = system: KM12
[12] = system: COLO 205
[13] = system: UO-31
[14] = system: NCI-H522
[15] = system: CCRF-CEM
[16] = system: M14
[17] = system: DU-145
[18] = system: SK-MEL-2
[19] = system: IGROV-1
[20] = system: SN12C

Measured: GI50

N#Cc1nc(-c2cccs2)oc1N
inactive: [1] > 100 µM | [2] > 100 µM | [3] 56.8 µM | [4] > 100 µM | [5] 75 µM | [6] > 100 µM | [7] > 100 µM | [8] > 100 µM | [9] > 100 µM | [10] > 100 µM | [11] > 100 µM | [12] > 100 µM | [13] 62.4 µM | [14] 18.5 µM | [15] 70.6 µM | [16] > 100 µM | [17] > 100 µM | [18] > 100 µM | [19] > 100 µM | [20] > 100 µM

CCN(CC)C(=O)CCCCCCCCC1CO1 (stereo not given)
inactive: [1] > 100 µM | [2] > 100 µM | [3] 21.1 µM | [4] > 100 µM | [5] > 100 µM | [6] > 100 µM | [7] > 100 µM | [8] > 100 µM | [9] > 100 µM | [10] > 100 µM | [11] > 100 µM | [12] > 100 µM | [13] > 100 µM | [14] > 100 µM | [15] > 100 µM | [16] > 100 µM | [17] > 100 µM | [18] > 100 µM | [19] > 100 µM | [20] > 100 µM

CC(C)[C@H]1NC(=O)[C@H]2N=C(O[C@@H]2C)[C@@H]2CCCN2C(=O)[C@H](Cc2ccccc2)NC(=O)[C@@H]2COC(=N2)[C@@H](Cc2ccccc2)NC(=O)[C@@H]2COC1=N2
inactive: [1] > 100 µM | [2] > 100 µM | [3] > 100 µM | [4] > 100 µM | [5] > 100 µM | [6] > 100 µM | [7] > 100 µM | [8] > 100 µM | [9] > 100 µM | [10] > 100 µM | [11] > 100 µM | [12] > 100 µM | [13] > 100 µM | [14] > 100 µM | [15] > 100 µM | [16] > 100 µM | [17] > 100 µM | [18] > 100 µM | [19] > 100 µM | [20] > 100 µM

CC(C)(C)[Si](C)(C)OCC1C=CC(n2cnc3c(N)ncnc32)O1 (stereo not given)
inactive: [1] 19.2 µM | [2] 53.5 µM | [3] 9.02 µM | [4] 81.1 µM | [5] > 59.8 µM | [6] 15.4 µM | [7] > 100 µM | [8] > 100 µM | [9] 61.2 µM | [10] 42.6 µM | [11] 59.2 µM | [12] > 73.1 µM | [13] 52 µM | [14] 33.2 µM | [15] 8.32 µM | [16] 23.8 µM | [17] 64.3 µM | [18] 39.4 µM | [19] 46.6 µM | [20] 35.9 µM

CCC(C#N)N(Cc1cccc(CN(C(C)=O)C(C#N)CC)c1)C(C)=O (stereo not given)
inactive: [1] 44.5 µM | [2] 7.57 µM | [3] > 100 µM | [4] > 100 µM | [5] > 100 µM | [6] > 100 µM | [7] > 100 µM | [8] > 100 µM | [9] > 100 µM | [10] > 100 µM | [11] > 100 µM | [12] > 100 µM | [13] > 100 µM | [14] > 100 µM | [15] > 100 µM | [16] > 100 µM | [17] > 100 µM | [18] > 100 µM | [19] > 100 µM | [20] > 100 µM

CN1C2CCC1CN(CCOC(c1ccc(F)cc1)c1ccc(F)cc1)C2
inactive: [1] 32.3 µM | [2] 19.5 µM | [3] 12.6 µM | [4] 42.3 µM | [5] 23.8 µM | [6] 14.4 µM | [7] > 100 µM | [8] 65 µM | [9] 19.6 µM | [10] 32.4 µM | [11] 21.8 µM | [12] 15.3 µM | [13] 33.2 µM | [14] 43.6 µM | [15] 36.7 µM | [16] 20.1 µM | [17] 57.5 µM | [18] 23.8 µM | [19] 36.1 µM | [20] 47.9 µM
